Source: patent publication EP0334956A1, “HEMOLYSIS INHIBITOR AND MEDICAL RESIN COMPOSITION, MEDICAL IMPLEMENT, AND BLOOD-PRESERVING FLUID CONTAINING THE SAME” (KAO CORPORATION, priority 1986, dated 1988)
Like-named read-outs stand apart in the source and are kept apart here.

Experiments:
[1] = test system: human platelet rich plasma; assay type: cell-based
Procedure: To determine the effects brought about on platelets by the compounds used in Examples 16 through 18, the test for recovery of function of platelets was carried out by the following procedure.
First, a solution of 20,000 ppm of isopropyl decyl maleate in methanol (Example 19), a solution of 20,000 ppm of isopropyl tetradecyl maleate in methanol (Example 20), a solution of 20,000 ppm of isopropyl decyl itaconate in methanol (Example 21), a solution of 20,000 ppm of di-2-ethylhexyl maleate in methanol (Control 24), a solution of 20,000 ppm of di-2-ethylhexyl phthalate in methanol (Control 25), a solution of 20,000 ppm of dinormal decyl phthalate in methanol (Control 26), and methanol containing no added compound (blank) were prepared. These solutions were severally added to human […] in a fixed amount of 1/100. […]
To determine the effects exerted on platelets by 2-ethylhexyl isostearate used in Example 24 and 2-ethylhexyl 2-ethylhexanoate used in Example 25, a test for the recovery of function of platelets was carried out by following the procedure of Examples 19 through 21. […] The procedure of Examples 19 through 21 was repeated on these solutions to determined maximum capacity for aggregation with respect to 50µM ADP and 10µg/ml collagen in the presence of 0.2 mg of fibrinogen per ml.

erythrocytes = settings: dissolving from flexible vinyl chloride resin container into preserved blood; Blood (1984); cited from earlier work
[2] = test system: human concentrated red cells; assay: Hemolysis of stored CRC, reagent added as Tween 80/physiological saline emulsion; plasma hemoglobin by TMB method; assay type: cell-based; settings: final concentration 0.5 mM, emulsion, 4°C, 4 weeks
Procedure: Isopropyl isotridecyl maleate was added to a 2000ug/ml polyoxyethylene monooleate (reagent-grade product of Wako Junyaku K.K. marketed under trademark designation of "Tween 80")/physiological saline mixed solution in such an amount to be contained therein in a final concentration of 4mM. A 0.2ml aliquot of the resultant emulsion was added to a human concentrated red cells (hereinafter referred to as "CRC") adjusted in advance to a hematocrit value of about 70% so as to be contained therein in a final concentration indicated in Table 1. The resulting liquid was placed in a stoppered polypropylene tube and left standing at rest at 4°C for 4 weeks. At the end of this standing, it was tested for plasma hemoglobin concentration by the TMB method (Clin. Chem., 23, 749-(1977)).
An emulsion was prepared by following the procedure of Example 1, except that isopropyl decyl maleate was used in place of isopropyl-isotridecyl maleate. A CRC sample incorporating the emulsion was left standing and thereafter tested for plasma hemoglobin concentration.
Emulsions were prepared by following the procedure of Excample 1, except that di-2-ethylhexyl phthalate (Control 1) and diisopropyl maleate, a carboxylic ester compound deviating from the scope of the present invention (Control 2) were respectively used in place of isopropyl isotridecyl maleate. CRC samples severally incorporating the emulsions were left standing and, thereafter, tested for plasma hemoglobin concentration.
Glycerine-l-butyl-3-isostearyl ether was added to a 2000 ug/ml polyoxyethylene monooleate (regent-grade product of Wako Junyaku K.K. marketed under trademark designation of "Tween 80")/ physiological saline mixed solution so as to be contained therein in a final concentration of 4 mM. A 0.2ml aliquot of the resultant emulsion was added to CRC adjusted in advance to a hematocrit value of about 70% so as to be contained therein in a final concentration indicated in Table 3. The resultant liquid was placed in a stoppered polypropylene tube and left standing at 4°C for 4 weeks. Thereafter, it was tested for plasma hemoglobin concentration by following the procedure of Example 1.
An emulsion was prepared by following the procedure of Example 5, except that glycerine-1,3-dioctyl ether was used in place of glycerine- l-butyl-3-isostearyl ether. A CRC sample incorporating the resultant emulsion was left standing and, thereafter, tested for plasma hemoglobin concentration. Controls 7 and 8
Emulsions were prepared by following the procedure of Example 5, except that di-2-ethylhexyl phthalate (Control 7) and glycerine monooctyl ether, an ether compound deviating from the scope of the present invention, (Control 8) were respectively used in place of glycerine-l-butyl-3-isostearyl ether. CRC samples incorporating the emulsions were left standing and, thereafter, tested for plasma hemoglobin concentration.
Isopropyl isolaurate was dispersed in a 2000 ug/ml poloxyethylene monooleate (reagent-grade product of Wako Junyaku K.K. marketed under trademark designation of "Tween 80")/physiological saline mixed solution so as to be contained therein in a concentration of 4 mM. A 0.2-ml aliquot of the resultant emulsion was added to CRC adjusted in advance to a hematocrit value of about 70% so as to be contained therein in a final concentration indicated in Table 5. The resultant liquid was placed in a stoppered polypropylene tube and left standing at 4°C for 4 weeks. Thereafter, it was tested for plasma hemoglobin concentration by following the procedure of Example 1.
An emulsion was prepared by following the procedure of Example 9, except that 2-ethylhexyl isostearate was used in place of isopropyl isolaurate. A CRC sample incorporating the resultant emulsion was left standing and, thereafter, tested for plasma hemoglobin concentration.

platelets = settings: Jouranl of Japan blood Transfusion Society, 28(3) 282 (1981); cited from earlier work
[3] = test system: human platelet rich plasma; assay: Platelet aggregation in platelet rich plasma (Aggrecoder); assay type: cell-based; settings: for activity at 400 µM: Homo sapiens, Platelet, 2 h, 40 mM methanol solution added in 1/100, room temperature 2 hours, relative to blank
Procedure: A 40 mM methanol solution of isopropyl isotridecyl maleate (Example 13), a 40 mM methanol solution of glycerine-l-butyl-3-isostearyl ether (Example 14), a 40 mM methanol solution of isopropyl isolaurate (Example 15), a 40 mM methanol solution of di-2-ethylhexyl phthalate (Control 19) and methanol containing no added compound (Control 20) were severally added to a human platelet rich plasma (count of platelets about 300,000/mm ) in a fixed amount of 1/100, left standing at room temperature for 2 hours, and tested for platelet aggregation by the use of an instrument (product of Kyoto Daiichikagaku K.K. marketed under "Aggrecoder").
The percentage of transmittance of light through the solution of platelet rich plasma containing a given sample to the maximum transmittance of light through the same solution of platelet rich plasma not containing the sample (blank) was reported as the ratio of aggregation of the sample. As aggregation inducers, 5 µM ADP (adenosine diphosphoric acid) and 5 ug/ml collagen were used.

SMILES	action on recovery of ability of platelet aggregation (in words) [1]	effect on hemolysis of erythrocytes (in words) (erythrocytes)	Hemoglobin concentration in plasma ([2]; Table 1)	Hemoglobin concentration in plasma ([2]; Table 3)	Hemoglobin concentration in plasma ([2]; Table 5)	effect on aggregating ability of platelets (in words) (platelets)	activity at 400 µM ([3]; read-out: Ratio of platelet aggregation, aggregation inducer 5 µM ADP)	activity at 400 µM ([3]; read-out: Ratio of platelet aggregation, aggregation inducer 5 µg/ml collagen)	effect on aggregating ability of platelets (in words) ([3]; summary of Table 7)
CCCCC(CC)COC(=O)C(CC)CCCC (stereo not shown) [2-ethylhexyl 2-ethylhexanoate]	produced no discernible action to curb recovery of the ability of platelet aggregation	–	–	–	–	–	–	–	–
CCCCC(CC)COC(=O)CCCCCCCCCCCCCCC(C)C (stereo not shown) [2-ethylhexyl isostearate]	produced no discernible action to curb recovery of the ability of platelet aggregation	–	–	–	–	–	–	–	–
CCCCC(CC)COC(=O)c1ccccc1C(=O)OCC(CC)CCCC (stereo not shown) [Di-2-ethylhexyl phthalate, reference compound]	–	serves to hinder the hemolysis of erythrocytes	41 Mg/ml	62 mg/mL	35 mg/mL	hinders the aggregating ability of platelets	92.1%	89.6%	produced a discernible effect of curbing the recovery of the aggregating ability of platelets
